Assay results published in patent publication US10072021B2, “Compound for inhibiting binding between DX2 protein and P14/ARF protein, and pharmaceutical composition for treating or preventing cancer disease containing same as effective ingredient” (PUSAN NATIONAL UNIVERSITY INDUSTRY-UNIVERSITY COOPERATION …, priority 2014, dated 2018).
“Also recorded” adds a separate entry of the source.

Assays:
[1] = tested on: H128 cells (SCLC cell line); test: MTT viability of H128 cells; type: cell-based, human; conditions: MTT assay, FIG. 7
Experimental: (§1) By MTT assay, anticancer effects were confirmed based on viability of tumor cells. That is, cells were incubated in 0.5 mg/ml of MTT solution for 4 hours at a temperature of 37° C. for a reaction, and then, formazen products formed therefrom were dissolved in dimethyl sulfoxide (DMSO). Then, absorbance thereof was measured at 540 nm by using a spectrometer.

H69 and H322 cells = test: Sensitivity of lung cancer cell lines to combinational treatment with Adriamycin and SLCB050; type: cell-based, human; conditions: combinational treatment with Adriamycin, FIG. 8C
Experimental: as §1

DX2-p14/ARF binding = biological target: T1, DX2-p14/ARF binding (Homo sapiens, UniProt Q13155); test: GST pull-down assay of DX2-p14/ARF binding; conditions: FIG. 2A, 3A, 3D, 3E
T1 construct: made in house; host or cells: E. coli BL21(DE3) for GST-p14/ARF; DX2 from 'cell lysate or recombinant protein'
T1 sequence (Q13155 1-251 isoform Q13155-2): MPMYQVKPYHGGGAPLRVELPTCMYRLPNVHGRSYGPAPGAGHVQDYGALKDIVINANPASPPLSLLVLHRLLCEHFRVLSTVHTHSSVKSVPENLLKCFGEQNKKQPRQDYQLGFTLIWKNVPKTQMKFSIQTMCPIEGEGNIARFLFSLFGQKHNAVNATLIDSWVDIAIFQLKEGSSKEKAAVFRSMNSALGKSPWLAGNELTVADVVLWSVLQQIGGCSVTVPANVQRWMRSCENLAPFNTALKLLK
Text: (§2) Through GST pull-down assays, more specific binding inhibitors were selected among the previously screened candidate drugs as DX2-p14/ARF binding inhibitors. That is, a p14/ARF fragment (full-length) was ligated into EcoRI and Hind II sites of pGEX-TEV vector, which is a modified vector by adding a TEV protease cleavage site to pGEX-4T1. The recombinant proteins were then expressed in E. coli strain BL21(DE3) as GST-fusion proteins. The proteins were purified by glutathione affinity chromatography.
(§3) To address direct binding between the two proteins, agarose-bead conjugated GST (negative control) or GST-target protein was incubated with cell lysate or recombinant protein in radioimmunoprecipitation assay (RIPA) buffer (NaCl, 25 mM Tris-Cl, 1% NP-40, 1% sodium deoxycholate, 0.1% SDS, protease inhibitor mixture) for 1 hour at a temperature of 4° C. for a reaction.

p53 = p53 induction in primary tumor cells (western blotting); type: cell-based; conditions: combinational treatment with Adriamycin and SLCB050, primary tumor cells from DX2 or DK mouse, FIG. 9C
Experimental: To carry out western blot analysis, proteins were thermally inactivated in RIPA buffer (heat treatment for 7 minutes at a temperature of 95° C.), and then, the resulting proteins were applied to SDS-PAGE, followed by western blot analysis according to a known method in the art (J. Clin. Oncol. 16, 1207-1217, 1998; Nat. Rev. Cancer 2, 489-501, 2002). Antibodies used herein, e.g., HA (sc-7392), His (sc-8036), GFP (sc-9996), GST (sc-138), Actin (se-1616), and p19/ARF (sc-32748), were purchased from Santa Cruz Biochnology, anti-p14/ARF (MAB3782) was purchased from Millipore, and FLAG-M2 and anti-C-Myc (M5546) were purchased from Sigma Aldrich. In addition, anti-AIMP2 was provided from Professor. Kim, Sung-Hoon (Seoul Nat. Univ.).

DX2-AIMP2 binding = biological target: T2, DX2-AIMP2 binding (Homo sapiens, UniProt Q13155); test: Protein binding assay using His-DX2 protein; conditions: FIG. 2C
T2 sequence (Q13155 1-251 isoform Q13155-2): T1 sequence (Q13155 1-251 isoform Q13155-2)
Experimental: Here, contransfected 293 cells were allowed to react with MG132 before immunoprecipitation analysis to prevent reduction of two proteins, and after performing SLCB050 treatment (10 μM, 6 hours), immunoprecipitation assay was performed on the cells by using Myc antibodies (DX2).
as §3

[2] = biological target: T3, DX2-p14/ARF binding (His-DX2, GST-p14/ARF) (Homo sapiens, UniProt Q13155); test: ELISA-based screening for inhibitors of DX2-p14/ARF binding; conditions: ELISA values at 450 nm
T3 construct: made in house; host or cells: E. coli BL21(DE3) (stated for the GST fusion)
T3 sequence (Q13155 1-251 isoform Q13155-2): T1 sequence (Q13155 1-251 isoform Q13155-2)
Experimental: In detail, referring to drawings, the compound according to an embodiment of the present invention which is a specific binding inhibitor of DX2 and p14/ARF was screened by using an ELISA-based screening method of FIG. 1. Based on the screening reaction system, increases in ELISA values with increasing concentrations of p14/ARF were measured. […] Thus, by using the ELISA-based screening method, compounds that are specific binding inhibitors of DX2 and p14/ARF were primarily screened.
That is, 0.5% His-DX2 recombinant proteins were immobilized on a 96-well plate with paraformaldehyde (PFA). After performing drying and cleaning processes, GST-p14/ARF proteins were allowed to react with a random compound (final concentration: 0.1 mM). After 1 hour, the plate was washed using TBS-T, and then, incubated with anti-GST antibodies (1:10,000, 30 minutes) and anti-mouse-IgG-HRP (1:50,000, 1 hour). After performing a washing process twice, the plate was incubated with 3,3′,5,5′-tetramethylbenzidine (TMB) solution (Calbiochem) and stop solution (1N H2SO4) for a reaction. Afterwards, by using an ELISA reader, values were measured at 450 nm, thereby selecting candidate drugs as DX2-p14/ARF binding inhibitors. […]

DX2 and p14/ARF = test: Localization and levels of DX2 and p14/ARF in cells after treatment (western blot); type: cell-based, human
p53-AIMP2 or DX2 binding = test: GST pull-down assay, selectivity: p53-AIMP2 or DX2 binding; conditions: FIG. 3B
Text: as §2, §3

H446 xenograft = tested on: H446 xenograft
Experimental: DK (5 month-old, N=6) mice were administered with carrier, SLCB050 (5 or 10 mg/kg), Adriamycin (1, 2.5, or 5 mg/kg), and a combination of SLCB050 and Adriamycin by intraperitoneal (i.p.) injection. After termination of the experiment of each group, mice were dissected and isolated lung tissues. For xenograft, 1×10^7 H446 cells (ATCC) were seeded in nude ice. After 4 weeks, tumor bearing mice were injected with Adriamycin, […], or a combination thereof for 6 weeks. Every weeks, tumor volume and body weight were measured.

SMILES: CC1(C)Oc2cc3oc(=O)ccc3cc2C[C@@H]1OC(=O)/C=C/c1ccco1 [SLCB050, (7S)-(+)-3-(2-Furanyl)-acrylic acid, 8,8-dimethyl-2-oxo-6,7-dihydro-2H,8H-pyrano[3,2-g]chromen-7-yl-ester]
- viability of H128 cells [1]: reduced the viability of H128 cells in a dose-dependent manner
- sensitivity to Adriamycin in SCLC cell line H69 (H69 and H322 cells): sensitivity to Adriamycin improved
- sensitivity to Adriamycin in p14/ARF-deficient H322 cells (H69 and H322 cells): did not show improved sensitivity
- inhibitory effect on DX2-p14/ARF binding (DX2-p14/ARF binding): completely blocked; also recorded: showed inhibitory effects on DX2-p14/ARF binding
- p53 induction in primary tumor cells (p53): induced p53 synergistically
- binding between DX2 and AIMP2 (DX2-AIMP2 binding): binding between DX2 and AIMP2 was reduced
- ELISA reaction of DX2-p14/ARF binding [2]: considerably reduced
- localization of DX2 and p14/ARF (DX2 and p14/ARF; 10 μM, 6 hours, nucleoplasm, FIG. 4B): DX2 was decreased and p14/ARF was increased in the nucleoplasm
- DX2 and p14/ARF levels (DX2 and p14/ARF; NSCLC cell line H1299 and SCLC cell line H69, FIG. 4C): decreases DX2, but increases p14/ARF
- DX2 levels in p14/ARF-deficient cells (DX2 and p14/ARF; p14/ARF-deficient H322 cells (H322, H460, A549), FIG. 4D): reduction of DX2; also recorded: DX2 levels decreased considerably
- inhibition of p53-AIMP2 or DX2 binding (p53-AIMP2 or DX2 binding): not on p53-AIMP2 or DX2 binding
- tumor growth, combination (H446 xenograft; SLCB050 10 mg/kg with low dose Adriamycin 2.5 mg/kg, FIG. 9B): more obvious anticancer effect; also recorded: obviously suppressed tumor growth
- tumor volume, SLCB050 alone (H446 xenograft; SLCB050 10 mg/kg, three times/week, FIG. 9B): moderately suppressed
- response of H446 xenograft model (H446 xenograft; single agents, FIG. 9A): partially responded
